US20060116316A1, “Heterocyclic inhibitors of IRES-mediated translation and methods of use thereof” (priority 2004, published 2006)
Where a SMILES comes first, the peptide text is derived from it.

Each compound was assayed on HCV IRES (assay: HCV IRES reporter FACS assay (GFP expression ratio, intein-expressed cyclic peptides)). Details: 3-mers from mutant intein scaffold, junction Val-His-Asn-X1X2X3-Trp-Ile-Ser; ratio at least 1.20 = significant activity.
Type: cell-based, Hepatitis C virus
Source text: [The source words this procedure for another variant and says it was used here with some conditions changed.] Cells producing libraries of cyclic 3-mers and 4-mers (i.e., libraries of cyclic peptides that contain 3 or 4 amino acid residues) were constructed using methods identical to those of Kinsella et al (J Biol. Chem. 2002 277:37512-8), except different oligonucleotides were used for library construction. Clones from this library were screened in an assay shown in FIG. 2 to identify IRES-inhibitory compounds.
In summary, separate cyclic 3-mer and cyclic 4-mer libraries were constructed such that each peptide of the library contained a fixed Ser, Thr or Cys residue (at position 1) and the remaining residues were randomized. For library construction, degenerate oligonucleotides of sequence 5′-[…](AGC/ACC/TGC)(NNK)2 or 3 TGCATCAGCGGCGACAG-3′ were annealed to the primer 5′-[…]-3′ and extended using the Expand PCR kit (Roche Molecular Biochemicals). The double-stranded DNA insert was digested and inserted into the BclI/DrdI sites of DnaBO-e-BFP (ACUC). The plasmid libraries were electroporated into ElectroMAX DH 10B competent E. coli (Invitrogen) for amplification on LB+amp agar medium. […] Expression of the intein is detected by detecting BFP expression. Expression of the intein (and the cyclic peptide produced by the intein) is suppressible by addition of exogenous doxycycline. The amino acid sequence of the junctions of the intein scaffold used in making the 3-mer library is Val-His-Asn-X3 or 4-Cys-Ile-Ser, where X3 or 4 are three or four contiguous amino acids.
Infectious retroviral particles were produced by transfection of 15 µg of each library (as described in Swift et al, (1999). Current Protocols in Immunology Vol. 10.17C, pp. 1-17, Freeman, N.Y.) into approximately 5×10^6 Phoenix-A packaging cells. Each resulting library of retroviral particles was then used to infect 5×10^6 BJAB-S3A11 reporter cells and a FACS based selection was carried out to isolate cells with reduced HCV-IRES reporter output.
In detail, referring to FIG. 2, the cells used in the assay contained an IRES-dependent reporter system. […]. Also present in the cells is a control reporter system for assaying the activity of 5′ cap-dependent translation (the mechanism by which most cellular proteins are normally translated). The control reporter system contains a CMV promoter that drives the transcription of an RNA containing 5′ cap-dependent UTR, operably linked to an RNA encoding RFP (red fluorescent protein). Translation of RFP is dependent on the activity of the 5′ cap-dependent UTR.
Cells containing both the cyclic compound library and the reporter systems described above were first screened for survival upon exposure to diptheria toxin, and then screened by FACS to identify cells that had reduced GFP expression, as compared to RFP expression. Cells were expanded and replica-plated and grown in the presence or absence of dox (100 ng/ml) for four days. Plates were stimulated with IL-4 and GFP expression (relative to RFP) was monitored by flow cytometry. The IRES-inhibitory activity of a peptide is evaluated by calculating the ratio of the geometric mean of GFP expression of peptide positive cells (“peptide pos+” cells i.e., cells not contacted with dox) to the geometric mean of GFP expression of peptide negative cells (“peptide pos−” cells i.e., cells contacted with dox).
Cyclic peptides assigned higher scores have a greater IRES-inhibitory activity.
The number shown in parentheses after each of the amino acid sequences is the IRES-inhibitory activity ratio, as discussed above.

Compound | IRES-inhibitory activity ratio (geometric mean GFP expression, peptide positive cells / peptide negative cells)
O=C(O)CC[C@@H]1NC(=O)[C@H](CO)NC(=O)[C@H](Cc2c[nH]c3ccccc23)NC1=O [cyclo-SEW, cyclo[SEW]] (cyclo(Glu-Trp-Ser)) | 2.00
CCC(C)[C@@H]1NC(=O)[C@H](C)NC(=O)[C@H](CO)NC1=O (some centres unmarked) [cyclo-SAI, cyclo[SAI]] | 1.30
C[C@@H]1NC(=O)[C@H](CO)NC(=O)[C@H](CCCCN)NC1=O [cyclo-SAK, cyclo[SAK]] (cyclo(Ala-Lys-Ser)) | 1.3
NC(=O)CC[C@@H]1NC(=O)[C@H](CO)NC(=O)[C@H](Cc2c[nH]c3ccccc23)NC1=O [cyclo-SQW, cyclo[SQW]] (cyclo(Gln-Trp-Ser)) | 2.20
C[C@@H]1NC(=O)[C@H](CO)NC(=O)[C@H](CCC(N)=O)NC1=O [cyclo-SAQ, cyclo[SAQ]] (cyclo(Ala-Gln-Ser)) | 1.4
O=C1N[C@@H](Cc2cnc[nH]2)C(=O)N[C@@H](Cc2c[nH]c3ccccc23)C(=O)N[C@H]1CO [cyclo-SHW, cyclo[SHW]] (cyclo(His-Trp-Ser)) | 2.26
O=C(O)C[C@@H]1NC(=O)[C@H](CO)NC(=O)[C@H](Cc2c[nH]c3ccccc23)NC1=O [cyclo-SDW, cyclo[SDW]] (cyclo(Asp-Trp-Ser)) | 1.85
O=C1CNC(=O)[C@H](CO)NC(=O)[C@H](Cc2c[nH]c3ccccc23)N1 [cyclo-SGW, cyclo[SGW]] (cyclo(Gly-Trp-Ser)) | 1.94

Same assay, conditions: 3-mers from mutant intein scaffold, junction Val-His-Tyr-X1X2X3-Cys-Ile-Ser; ratio at least 1.20 = significant activity

Compound | IRES-inhibitory activity ratio (geometric mean GFP expression, peptide positive cells / peptide negative cells)
C[C@@H]1NC(=O)[C@H](CO)NC(=O)[C@H]([C@@H](C)O)NC1=O [cyclo-SAT, cyclo[SAT]] (cyclo(Ala-Thr-Ser)) | 1.21
CC(C)[C@@H]1NC(=O)[C@H](C)NC(=O)[C@H](CO)NC1=O [cyclo-SAV, cyclo[SAV]] (cyclo(Ala-Val-Ser)) | 2.65
CC(C)[C@@H]1NC(=O)[C@H](Cc2cnc[nH]2)NC(=O)[C@H](CO)NC1=O [cyclo-SHV, cyclo[SHV]] (cyclo(His-Val-Ser)) | 1.91

Same assay, conditions: 4-mers from mutant intein scaffold, junction Val-His-Asn-X1X2X3X4-Cys-Ser; ratio at least 1.20 = significant activity

Compound | IRES-inhibitory activity ratio (geometric mean GFP expression, peptide positive cells / peptide negative cells)
CSCC[C@@H]1NC(=O)[C@H](Cc2ccccc2)NC(=O)[C@H](Cc2c[nH]c3ccccc23)NC(=O)[C@H](CO)NC1=O [cyclo-SWFM, cyclo[SWFM]] (cyclo(FMSW)) | 1.31
N=C(N)NCCC[C@@H]1NC(=O)[C@H](Cc2ccc(O)cc2)NC(=O)[C@H](Cc2c[nH]c3ccccc23)NC(=O)[C@H](CO)NC1=O [cyclo-SWYR, cyclo[SWYR]] (cyclo(RSWY)) | 1.49
N=C(N)NCCC[C@@H]1NC(=O)[C@H](Cc2c[nH]c3ccccc23)NC(=O)[C@H](Cc2c[nH]c3ccccc23)NC(=O)[C@H](CO)NC1=O [cyclo-SWWR, cyclo[SWWR]] (cyclo(RSWW)) | 2.03
N=C(N)NCCC[C@@H]1NC(=O)[C@H](Cc2ccccc2)NC(=O)[C@H](Cc2c[nH]c3ccccc23)NC(=O)[C@H](CO)NC1=O [cyclo-SWFR, cyclo[SWFR]] (cyclo(FRSW)) | 1.44
C[C@@H](O)[C@@H]1NC(=O)[C@H](CCCNC(=N)N)NC(=O)[C@H](Cc2ccccc2)NC(=O)[C@H](Cc2c[nH]c3ccccc23)NC1=O [cyclo-TWFR, cyclo[TWFR]] (cyclo(FRTW)) | 1.56

Same assay, conditions: BJAB-S3A11 reporter cells, +/- dox 100 ng/ml four days; library intein junction Val-His-Asn-X1X2X3-Cys-Ile-Ser; ratio at least 1.20 = significant activity

Compound | IRES-inhibitory activity ratio (geometric mean GFP expression, peptide positive cells / peptide negative cells)
CCC(C)[C@@H]1NC(=O)[C@H](Cc2c[nH]c3ccccc23)NC(=O)[C@H](CO)NC1=O (some centres unmarked) [cyclo-SWI, cyclo[SWI]] | 1.36
CCC(C)[C@@H]1NC(=O)[C@H](C(C)C)NC(=O)[C@H](CO)NC1=O (some centres unmarked) [cyclo-SVI, cyclo[SVI]] | 1.28
CC(C)[C@@H]1NC(=O)[C@H](Cc2ccccc2)NC(=O)[C@H](CO)NC1=O [cyclo-SFV, cyclo[SFV]] | 1.33
CSCC[C@@H]1NC(=O)[C@H]([C@@H](C)O)NC(=O)[C@H](Cc2ccccc2)NC1=O [cyclo-TMF, cyclo[TMF]] (cyclo(Phe-Thr-Met)) | 1.37
C[C@@H](O)[C@@H]1NC(=O)[C@H](Cc2c[nH]c3ccccc23)NC(=O)[C@H](CC(N)=O)NC1=O [cyclo-TQW, cyclo[TQW]] | 1.7
C[C@@H](O)[C@@H]1NC(=O)[C@H](Cc2c[nH]c3ccccc23)NC(=O)[C@H](Cc2ccc(O)cc2)NC1=O [cyclo-TYW, cyclo[TYW]] (cyclo(Thr-Tyr-Trp)) | 2.23
C[C@@H](O)[C@@H]1NC(=O)[C@H](Cc2c[nH]c3ccccc23)NC(=O)[C@H](CS)NC1=O [cyclo-TCW, cyclo[TCW]] (cyclo(Cys-Trp-Thr)) | 1.48
C[C@@H](O)[C@@H]1NC(=O)[C@H](Cc2c[nH]c3ccccc23)NC(=O)[C@H](Cc2ccccc2)NC1=O [cyclo-TFW, cyclo[TFW]] (cyclo(Phe-Trp-Thr)) | 1.75
CC(C)[C@@H]1NC(=O)[C@H](Cc2c[nH]c3ccccc23)NC(=O)[C@H](CO)NC1=O [cyclo-SWV, cyclo[SWV]] (cyclo(Ser-Trp-Val)) | 1.83
CC(C)[C@@H]1NC(=O)[C@H](CCCCN)NC(=O)[C@H](CO)NC1=O [cyclo-SKV, cyclo[SKV]] (cyclo(Lys-Val-Ser)) | 1.38
CC(C)[C@@H]1NC(=O)[C@H](CO)NC(=O)[C@H](Cc2c[nH]c3ccccc23)NC1=O [cyclo-SVW, cyclo[SVW]] (cyclo(Ser-Val-Trp)) | 1.3
CSCC[C@@H]1NC(=O)[C@H](CS)NC(=O)[C@H](Cc2c[nH]c3ccccc23)NC1=O [cyclo-CMW, cyclo[CMW]] (cyclo(Cys-Met-Trp)) | 1.29
CCC(C)[C@@H]1NC(=O)[C@H](CO)NC(=O)[C@H](Cc2c[nH]c3ccccc23)NC1=O (some centres unmarked) [cyclo-SIW, cyclo[SIW]] | 1.36
